Earlier results as cited in patent publication US20240401150A1, “PANCREATIC DUCTAL ADENOCARCINOMA SIGNATURES AND USES THEREOF” (The Broad Institute, Inc., priority 2022, published 2024).

How the values were obtained:
[1] = biological target: CXCR4 (Homo sapiens, UniProt P61073); conditions: literature (ref 133)
[2] = test system: intra-tumoral cytotoxic T cells; conditions: previously identified (refs 20, 61)

Sequence of CXCR4 (P61073 whole entry): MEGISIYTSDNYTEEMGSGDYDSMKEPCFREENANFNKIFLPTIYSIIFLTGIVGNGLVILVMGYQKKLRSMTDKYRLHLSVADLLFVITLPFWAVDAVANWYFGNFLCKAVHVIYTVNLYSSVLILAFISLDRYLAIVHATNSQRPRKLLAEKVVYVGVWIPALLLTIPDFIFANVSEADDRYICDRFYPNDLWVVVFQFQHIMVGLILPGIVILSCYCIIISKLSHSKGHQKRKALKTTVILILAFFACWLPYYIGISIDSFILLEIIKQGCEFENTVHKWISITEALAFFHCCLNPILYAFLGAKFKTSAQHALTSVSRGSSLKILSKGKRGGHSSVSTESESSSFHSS

Row | SMILES | effect of clinical inhibition of CXCR4 [1] | intra-tumoral cytotoxic T cell activity [2]
1 | c1cc(CN2CCCNCCNCCCNCC2)ccc1CN1CCCNCCNCCCNCC1 [AMD3100] | integrated immune response^133 | 
2 | CCCCc1nc(Cl)c(CO)n1Cc1ccc(-c2ccccc2-c2nn[nH]n2)cc1 [losartan] |  | increase
